We go through eight molecules from PubChem BioAssay (NCI).

Some test systems named below: EKVX NSCLC; HCT-116 colon; IGROV1 ovarian; KM12 colon; NCI-H23 lung; SN12C renal; SW-620 colon; U251 CNS; UACC-257 melanoma; UACC-62 melanoma.
What all share (assay): growth of human tumour cells (NCI), 48 h

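Results reflect a 48-hour exposure of cells in 96-well plates to compound at five concentrations. Abbreviation: GI50, concentration required for 50% inhibition of growth. TGI: total growth inhibition.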

With `COc1c(OC[C@H](O)CN2CCOCC2)ccc2c3n(c(=NC(=O)c4cccnc4C)nc12)CCN3`, the GI50 in the test on EKVX NSCLC is 1.05 µM; in the test with HCT-116 colon, 24.2 µM; in the test on IGROV1 ovarian, 0.06 µM; with KM12 colon it was 40.7 µM; in the test on NCI-H23 lung, more than 50 µM; with SN12C renal it was 1.72 µM. Moreover, the GI50 is 49.4 µM in the test with SW-620 colon, 2.58 µM in the test on U251 CNS, 1.11 µM in the test on UACC-257 melanoma and 0.33 µM in the test with UACC-62 melanoma. Further, the TGI in the test with EKVX NSCLC was more than 50 µM; in the test with HCT-116 colon, more than 50 µM; in the test on IGROV1 ovarian, 0.343 µM; in the test with KM12 colon it was more than 50 µM; in the test on NCI-H23 lung, more than 50 µM; with SN12C renal, more than 50 µM. For the same molecule, the TGI in the test with SW-620 colon, with U251 CNS, in the test with UACC-257 melanoma and with UACC-62 melanoma was more than 50 µM each time.

Regarding `COc1ccc(-c2nn(-c3ccc(NC(=O)c4ccc(Cl)c(Cl)c4)cc3)cc2-c2ccncc2)cc1Cl`, the GI50 is 3.25 µM with EKVX NSCLC; 2.5 µM in the test on HCT-116 colon; more than 50 µM in the test with IGROV1 ovarian; 1.59 µM in the test with KM12 colon; more than 12.7 µM in the test with NCI-H23 lung; more than 50 µM in the test on SN12C renal. For the same molecule, the GI50 with SW-620 colon was 2.67 µM; in the test with U251 CNS, 1.3 µM; in the test on UACC-257 melanoma, more than 34.5 µM; with UACC-62 melanoma, 1.78 µM. Moreover, the TGI with EKVX NSCLC, with HCT-116 colon, in the test on IGROV1 ovarian, in the test with KM12 colon, in the test with NCI-H23 lung and in the test with SN12C renal was more than 50 µM each time. In addition, the TGI in the test on SW-620 colon is more than 50 µM; in the test with U251 CNS it was more than 50 µM; in the test on UACC-257 melanoma, more than 50 µM; in the test on UACC-62 melanoma, more than 38.7 µM.

With `O=C1/C(=C/c2cccc(Cl)c2Cl)N=C(c2ccccc2)N1C1CC1`, the GI50 with EKVX NSCLC was 9.9 µM; with HCT-116 colon it was 8.98 µM; in the test on IGROV1 ovarian, 19.7 µM; in the test on KM12 colon it was 11.9 µM; in the test with NCI-H23 lung, 9.35 µM; in the test on SN12C renal, 8.62 µM. Moreover, the GI50 in the test with SW-620 colon was 26.7 µM; in the test with U251 CNS, 12.6 µM; in the test with UACC-257 melanoma, 12.2 µM; with UACC-62 melanoma, 9.2 µM. The TGI in the test on EKVX NSCLC is 22.2 µM; in the test on HCT-116 colon, 18.9 µM; in the test on IGROV1 ovarian, more than 50 µM; in the test with KM12 colon, 34.4 µM; with NCI-H23 lung, 19.5 µM; in the test with SN12C renal it was 17.5 µM. For the same molecule, the TGI was more than 50 µM with SW-620 colon, 34.7 µM in the test on U251 CNS, 26.2 µM with UACC-257 melanoma and 19.5 µM with UACC-62 melanoma.

As for `COc1cc2c3c(n(C)c(=O)c2cc1OC)-c1cc2c(cc1/C3=C\CN)OCO2`, the GI50 is 11.6 µM in the test with EKVX NSCLC; 0.0713 µM with HCT-116 colon; 1.35 µM in the test with IGROV1 ovarian; 1.18 µM in the test on KM12 colon; 0.249 µM with NCI-H23 lung; 0.565 µM in the test with SN12C renal. Also, the GI50 is 0.0395 µM with U251 CNS, 1.44 µM in the test on UACC-257 melanoma and 0.0731 µM with UACC-62 melanoma. Besides, the TGI in the test with EKVX NSCLC is more than 100 µM; in the test with HCT-116 colon, 0.437 µM; in the test on IGROV1 ovarian, more than 100 µM; in the test on KM12 colon, 12.1 µM; in the test on NCI-H23 lung, 8.77 µM; with SN12C renal, more than 100 µM. For the same molecule, the results for the TGI with SW-620 colon, in the test on U251 CNS and in the test on UACC-257 melanoma were more than 41.3 µM, 3.31 µM and 20.4 µM, respectively.

With `C[C@@H]1CC[C@@H]2[C@@H]1[C@H](OC(=O)/C=C/c1ccccc1)[C@]1(C3CCCCC3)C[C@@H](OC(=O)CO)[C@@]2(C)O1`, the GI50 was 3.47 µM in the test with EKVX NSCLC; 1.92 µM in the test with HCT-116 colon; 3.84 µM in the test with IGROV1 ovarian; 3.1 µM in the test on KM12 colon; 3.88 µM in the test on NCI-H23 lung; 0.086 µM in the test on SN12C renal. Also, the GI50 with SW-620 colon is 4.43 µM; in the test with U251 CNS, 2.7 µM; with UACC-257 melanoma it was 5.1 µM; in the test on UACC-62 melanoma it was 3.11 µM. Moreover, the TGI in the test with EKVX NSCLC worked out at 15.6 µM; in the test on HCT-116 colon, 4.13 µM; in the test with IGROV1 ovarian it was 15 µM; with KM12 colon, 10.8 µM; in the test on NCI-H23 lung, 14.8 µM; with SN12C renal, 3.56 µM. Besides, the TGI in the test on SW-620 colon worked out at 16.9 µM; in the test with U251 CNS, 8.26 µM; in the test with UACC-257 melanoma, 18.7 µM; in the test with UACC-62 melanoma, 10.1 µM.

Turning to `CCOc1ccccc1NC(=O)C(=O)CC(=O)c1sc(Nc2nnc(-c3ccc(Cl)c(Cl)c3)o2)nc1C`, the TGI in the test on EKVX NSCLC, with HCT-116 colon, in the test on IGROV1 ovarian, in the test on KM12 colon, with NCI-H23 lung and with SN12C renal was more than 100 µM in each case. The TGI in the test with SW-620 colon is more than 100 µM; with U251 CNS, 41.4 µM; in the test on UACC-257 melanoma it was more than 100 µM; with UACC-62 melanoma it was more than 100 µM.

As to `Cn1cc(-c2csc(-c3c[nH]c4ccc(F)cc34)n2)c2cnccc21`, the GI50 in the test on EKVX NSCLC was 1.62 µM; in the test with HCT-116 colon, 1.22 µM; in the test on IGROV1 ovarian it was 1.59 µM; in the test with KM12 colon it was 1.83 µM; with NCI-H23 lung it was 1.62 µM; in the test on SN12C renal, 1.72 µM. The GI50 in the test with SW-620 colon was 2.12 µM; in the test with U251 CNS, 1.87 µM; with UACC-257 melanoma, 1.96 µM; with UACC-62 melanoma, 1.83 µM. The TGI is 3.3 µM in the test with EKVX NSCLC; 2.56 µM in the test with HCT-116 colon; 3.09 µM in the test on IGROV1 ovarian; 3.49 µM with KM12 colon; 3.25 µM in the test on NCI-H23 lung; 3.22 µM with SN12C renal. In addition, the TGI with SW-620 colon was found to be 4.09 µM; with U251 CNS, 3.4 µM; with UACC-257 melanoma, 3.55 µM; in the test with UACC-62 melanoma it was 3.39 µM.

Regarding `CCOc1ccc(NC(=O)C(=O)CC(=O)c2c(C)n([O-])c3ccccc3[n+]2=O)cc1`, the TGI in the test with EKVX NSCLC, in the test on HCT-116 colon, with IGROV1 ovarian, with KM12 colon, with NCI-H23 lung and with SN12C renal was more than 100 µM in each case. Further, the TGI in the test on SW-620 colon, in the test with U251 CNS, in the test with UACC-257 melanoma and in the test on UACC-62 melanoma was more than 100 µM throughout.
